# Measurements from a melting point compilation (Tetko et al.; mined from patent text by program, amines drawn as free bases though some values may be those of a salt).
row,SMILES,melting point [°C]
1,N#CCOc1ccc2cc(Br)ccc2c1Br,130 to 132
2,CN(C)c1ccc(C2(c3ccc(N(C)C)cc3N(C)C)OC(=O)c3cc(N(C)C)ccc32)cc1 (configuration not stated),182 to 185
3,CC(=O)OCC1OC(n2ccc(=O)[nH]c2=O)C(Br)C1OC(C)=O (configuration not stated),69 to 77
4,CCCn1c(=O)c2c(nc(/C=C/c3ccc4c(c3)OCCO4)n2C)n(CCC)c1=O,182
5,COc1cc2c(cc1OC)C(C)=[N+]([O-])C(c1ccccc1)N2 (configuration not stated),178 to 182
6,CNC(=O)n1nc(Oc2c(Cl)cc(C(F)(F)F)cc2Cl)c(Cl)c1C,125 to 127
7,Cc1c(SCCCSCc2ccc(Cl)s2)ccnc1CSc1ccncc1,76 to 77
8,COC(=O)C(=O)Nc1cccc(OCCCBr)c1,90 to 91
9,CCOC(=O)CCN=c1sc2ccccc2s1,61 to 62
10,COC(=O)c1nc2ccccc2c(N)c1C(=O)OC,167 to 168
11,CCOC(=O)CCCCOc1ccc([N+](=O)[O-])c(C=C2NC(=O)NC2=O)c1,127 to 129
12,O=S(=O)(Nc1ccccc1OCc1ccc2ccccc2n1)c1ccc(Cl)cc1,129 to 130
13,O=[N+]([O-])c1ccc(N2CCC(Nc3ncnc4c3ncn4[C@@H]3C[C@H](CO)[C@@H](O)[C@H]3O)C2)cc1 (some centres not stated),119 to 120
14,Cc1c(Cl)cccc1S(=O)(=O)Nc1ccc2occ(C)c2c1,120
15,CCOC(=O)C(=O)Nc1cccc(C)n1,61 to 63
16,CC(=O)Oc1cc(N(C)C2CCCCC2)c2ccccc2c1OC(C)=O,103 to 105
17,Nc1sc2c(c1C(=O)c1ccc(I)cc1)CCN(C(=O)Nc1ccccc1)C2,89 to 90
18,Cn1c2ccccc2c(=O)c2cscc21,188 to 190
19,C[C@H]([C@](O)(Cn1cncn1)c1ccc(F)cc1F)S(=O)(=O)CC(N)=O,184 to 185
20,COc1cc(-c2nn(C)c(C(F)(F)F)c2Br)c(F)cc1Cl,85 to 86
21,NC(=S)NCc1cccs1,99 to 101
22,COc1ccccc1NC(=O)c1ccccc1SSc1ccccc1C(=O)Nc1ccccc1OC,154 to 155
23,CC(=O)Nc1ccc(C(=O)O)c(O)c1,221 to 223
24,CC1(C)CC(=O)Nc2c(CCN3CCN(c4noc5ccccc45)CC3)cc(F)cc21,230
25,O=C(Nc1ccc([N+](=O)[O-])cc1)C(F)F,188 to 189
26,C=CCc1c(O)c(C)cc2ccc(=O)oc12,161 to 162

row,SMILES,melting point [°C]
1,COCCOc1ccc2c(C(c3cccc(NC(=O)OCc4ccccc4)c3C)C(C)[N+](=O)[O-])c[nH]c2c1 (configuration not stated),140
2,CCNC(=O)c1cc(NS(=O)(=O)c2ccc(OC)cc2)ccc1Oc1cncc(Cl)c1,146 to 147
3,COc1c(C=NO)ccc2c1OCO2,118 to 119
4,CN(C)c1cccc([N+](=O)[O-])c1C(=O)NC1CCN(C(c2ccccc2)c2ccccc2)CC1,122
5,CCCCCCCCCCOC(=O)c1nc(-c2ccc(Cl)cc2)c(F)c(N)c1Cl,62 to 63
6,COc1ccc2[nH]c(SCc3ncc(C)c(N4CCCCC4)c3Cl)nc2c1,154 to 156
7,CC(=O)N1CCc2cc(S(=O)(=O)n3c(CCCC(=O)O)cc4cc(Cl)ccc43)ccc21,115 to 117
8,CS(=O)(=O)OC(c1cccc(C(OS(C)(=O)=O)(C(F)(F)F)C(F)(F)F)c1)(C(F)(F)F)C(F)(F)F,125
9,CN1CCN(c2cccc3c2C[C@H](NC(=O)c2ccc(Cl)cc2)CC3)CC1,204 to 205
10,Cc1cccc(-c2sc(N)nc2-c2ccnc(-c3ccc(OCC(N)=O)cc3)c2)n1,191
11,O=C1NC(=O)C(Oc2ccc3ccccc3c2)S1 (configuration not stated),221 to 222
12,CC(C)N1C(=O)N=C(SCc2ccccc2)NS1(=O)=O,124 to 130
13,C=C(C)C(=O)OCCCCc1cc(-c2ccc(OC(=O)C(=C)C)cc2)ccc1OC(=O)C(=C)C,76
14,CN1C(=O)CCC2(C)c3ccc(CSc4ccccc4)cc3CCC12 (configuration not stated),144 to 146
15,COC(=O)[C@H]1O[C@@H](n2cnc3c(Cl)ncnc32)[C@H](OC(C)=O)[C@@H]1N=[N+]=[N-],94 to 96
16,Cc1nc(OC(C)C)nc(C)c1N1CCCn2c1nc1c(Cl)ccc(C(OC(F)F)C(F)(F)F)c12 (configuration not stated),227 to 230
17,O=C(CCCCCCC(=O)N1CCN(c2cccc(F)c2)CC1)NO,149 to 150
18,Cc1cc(C#N)cc(C)c1Oc1cc(Cl)nc(Cl)n1,208 to 210
19,Cn1ncc(=O)[nH]c1=O,118
20,COC(=O)c1ccc(OCC=O)cc1,58 to 60
21,CCC(=O)c1cc(C2(c3cccc(-c4cncnc4)c3)N=C(N)N(C)C2=O)cs1 (configuration not stated),167 to 172
22,OC(CCCl)COc1ccc(-c2ccccc2)cc1 (configuration not stated),123 to 124
23,Cc1cc(SC#N)c(C)c(C)c1O,100
24,CCOC(=O)c1cc2c3ccccc3ncn2c1,138 to 139
25,Clc1nc(Cl)c2sc(Cl)nc2n1,121 to 122
26,Cc1cn(N=Cc2ccccc2)cn1,91 to 93

row,SMILES,melting point [°C]
1,NS(=O)c1ncnc2c1ncn2C1OC(CO)C(O)C1O (configuration not stated),> 120
2,CCCCNC(=O)OC1c2cccnc2C(=O)N1c1ccc2ccc(Cl)nc2n1 (configuration not stated),215
3,N#Cc1cc(-c2ccoc2)c2ccc(COc3cc(F)cc(-c4cccnc4)c3)cc2n1,193 to 195
4,COc1ccc(Br)c2c1C(=O)C(C=O)C2 (configuration not stated),76 to 78
5,O=C1NC(=O)C(CC#Cc2ccc(Cl)cc2)(Sc2nc3ccccc3o2)S1 (configuration not stated),137 to 139
6,CCC1(C)CC2(C(=O)N(C)C(=O)N2C)C(C)C(C)(CC)N1C (configuration not stated),77 to 88
7,Clc1cccc2c1c(Cl)nc1c(-c3nc(C4CC4)no3)ncn12,238 to 240
8,CC(=O)Oc1cc2c(cc1C=O)C1CCC3(C)C(O)CCC3C1CC2 (configuration not stated),73 to 75
9,CCCOc1nc(NC(C)=O)nc2ccc(Cl)nc12,191
10,COc1cc(-c2nn(C)c(C#N)c2C)c(F)cc1Cl,155 to 156
11,CC(C)c1cc(NC(=O)C(CS)Cc2ccccc2)cc(C(=O)O)c1 (configuration not stated),205 to 209
12,CNC(=O)Nc1nc2c(s1)C(C)(C)CC(C)(C)C2,> 250
13,O=C(O)C(=O)c1ccc(OCCCCc2ccncc2)cc1,198 to 199
14,CCc1c(C(=O)NNC(=O)C(O)c2cc(F)cc(F)c2)ccc(OC)c1C (configuration not stated),197
15,COc1ccc(N2CCN(c3ccc(Nc4nc(-c5ccccc5)cs4)cc3)CC2)cc1,270
16,CNC1C(O)CC2C3CCc4cc(OC(=O)C(C)(C)C)ccc4C3CCC21C (configuration not stated),196 to 199
17,O=C(O)CS(=O)c1cc2onc(-c3ccccc3F)c2cc1Br (configuration not stated),173 to 174
18,Cc1cc(-c2n[nH]c(=O)c(O)c2O)ccc1O,265 to 267
19,O=C(O)Cc1ccc(Br)cc1F,121 to 122
20,O=C(Nc1cccc(C(=O)O)c1)OCc1ccccc1,218 to 219
21,COc1ccc(-c2sc3cc(OC)ccc3c2C#N)cc1,142 to 143
22,O=C(/C=C/c1cccc(NS(=O)(=O)c2ccc(C(=O)Nc3ccc(Cl)c(-c4ccccn4)c3)c(Cl)c2)c1)NO,217 to 221
23,CCCCCCCCCCC[C@H](CC(=O)N[C@@H](CO)CCCN)OCc1ccccc1,47 to 48
24,CCOP(=O)(/C=C/c1cn(-c2ccccc2)nc1OCc1ccccc1)OCC,89 to 90
25,CC(=O)Nc1cc(C)c(OC(C)=O)cc1C,177
26,COC(=O)c1sc2ccc([N+](=O)[O-])cc2c1N,208 to 210

row,SMILES,melting point [°C]
1,COc1ccc(OC)c(/C=C/C(=O)/C=C/C(=O)O)c1,145 to 146
2,Cc1cc(C)c(C2=C(OC(=O)C(C)(C)C)CC(CC3CCOC3)CC2=O)c(C)c1 (configuration not stated),108 to 110
3,CSC(Oc1cc(C)c2ncc(I)cc2c1)C(=O)NC(C)(C#N)CF (configuration not stated),70 to 79
4,O=C1CC(SSSSC2CC(=O)NC2=O)C(=O)N1 (configuration not stated),108 to 114
5,CC(C)CCc1c(-c2ccc(S(C)(=O)=O)cc2)cnn(-c2ccc(F)cc2)c1=O,151 to 154
6,CC(C)NC(=O)c1c(NC(=O)c2cc(C(F)(F)F)nn2-c2ncccc2Cl)ccc2cc[nH]c12,240 to 242
7,CCc1nccn2c(-c3ccnc(NCC(C)(C)O)n3)c(-c3ccc(F)cc3F)nc12,164 to 165
8,Cc1cccc(C)c1NS(=O)(=O)c1cc(S(=O)(=O)Nc2c(C)cccc2C)c2cc(O)ccc2c1,162 to 164
9,CC(=O)Oc1c(C)c(C)c2c(c1C)CCC(C)(CCBr)O2 (configuration not stated),102 to 103
10,CCCc1nc2c(N)nc3cccnc3c2n1CCCCN(OC)C(=O)NC(C)C,161 to 162
11,CC(=O)NC[C@H]1CN(c2ccc(N3CCC(n4nnnc4N)CC3)c(F)c2)C(=O)O1,174 to 176
12,CCOC(=O)C(=NOC)c1nc(Cl)cc(NC=O)n1,116 to 119
13,CCCCCCCc1ccc(OC(=O)c2cc3c(s2)CC(CCCCC)C3)cc1 (configuration not stated),64
14,CC12CCC3C(CCC4CC=CCC43C)C1CC=C2I (configuration not stated),71 to 72
15,O=C(CC(c1cc(F)ccc1F)S(=O)(=O)c1ccc(Cl)cc1)N1CCCC1 (configuration not stated),122 to 125
16,CC(=O)SCCC(=O)N1c2ccc(Cl)cc2CCC1C(=O)O (configuration not stated),134 to 136
17,COc1cc2ncnc(N3CCC(C(=O)CN4C=CC(C)=NS4(=O)=O)CC3)c2cc1OC,172 to 175
18,CC(C)(C)OC(=O)CC1CCC(=O)Nc2ccccc21 (configuration not stated),101 to 103
19,CCCCCCCCCCCCCCCCCCS(=O)(=O)Nc1cc(C(=O)Nc2ccccc2)ccc1OC,154 to 156
20,CC1(C)CC(N)c2cc(OCc3ccccc3)ccc2O1 (configuration not stated),86 to 88
21,"Cc1ccccc1Sc1ccc2c(c1)CCC1N(C)C(=O)CCC21C (single isomer, unassigned; (+))",105 to 106
22,COc1cc2c(c(Cl)c1Cl)C(=O)C(C)(C)C2c1ccccc1 (configuration not stated),146 to 148
23,CCN(CC)c1ccc(C2(N(c3ccc(NC(C)=O)cc3)c3ccc(NC(C)=O)cc3)OC(=O)c3ccccc32)c(C)c1 (configuration not stated),179 to 182
24,CNC(=O)c1ccc(N2CCNCC2)c(F)c1,174 to 193
